In series [1] the test system is MDA453 xenografts. Nature of the series: MDA453 human breast cancer xenograft, cisplatin study 8. It is filed as in vivo, mice. On the procedure: (§1) Two separate HER2-overexpressing human breast cancer xenograft models were utilized: BT474 and MDA453. The BT474 or MDA453 tumors were inoculated from cultured cells in exponential growth. Cells were trypsinized, collected and washed in media. Cells were counted by hemacytometer, spun down and resuspended in media at 50 million cells per milliliter of media (5 million cells per 0.1 ml injection volume). Resuspended cells were chilled, then mixed in an equal volume of Matrigel. Cells (0.2 ml, continuously mixed) were drawn into individual, chilled syringes for subcutaneous injection into the dorsum of each animal.
(§2) Immune-deficient female mice (NCR.nu/nu, Taconic Farms, Germantown, N.Y.) were obtained from the vendor and acclimated for at least 7 days prior to initiation of experiments. Animals were housed in microisolator caging (Thoren Caging, Hazelton, Pa.) with ad lib gamma irradiated rodent food and autoclaved, acidified water. Lights were set for 12:12 light: dark cycle. All animals received a 0.72 mg estradiol 17β sustained release pellet (Innovative Research of America, Sarasota, Fla.) by subcutaneous injection 24 hours prior to tumor inoculation. Animals were randomized into treatment groups prior to inoculation of tumors.
Animals were weighed prior to inoculation of tumors and at least weekly thereafter. Tumors were measured twice weekly throughout the experiment, beginning 6-8 days after tumor inoculation. Tumor measurements were made by digital caliper in 3 dimensions and the volume recorded as one half the product of these measurements. […]
Tumor volumes, measured repeatedly throughout experiments, were used for analysis as correlated information. […] Growth rates (slope) for each treatment group within each experiment were calculated and compared in linear regression. […]
(§3) Tumor size at specific times after treatment was compared between treated and control groups. Tumor growth inhibition was reported as % T/C which is the tumor size of each treated group divided by the control group, expressed as a percentage.

Series [2] has as its system BT474 xenografts. In words: BT474 human breast cancer xenograft, cisplatin studies 6-7. It is filed as in vivo, mice. On the procedure:
In Study No. 6, mice were inoculated with BT474 cells.
The animals were dosed as described in Example 2, with the saline and chemotherapeutic agent administered intravenously once per week and the biological agent administered intraperitoneally twice per week.
as §1, §2
(§4) Animals were weighed prior to inoculation of tumors and at least weekly thereafter. Tumors were measured twice weekly throughout the experiment, beginning 6-8 days after tumor inoculation. Tumor measurements were made by digital caliper in 3 dimensions and the volume recorded as one half the product of these measurements. Any animal observed to have 15% or greater weight loss from the initial starting weight was immediately euthanized. Any animal observed to have greater than 4,000 mm^3 tumor volume was immediately euthanized.
(§5) Animals were divided into 6 treatment groups (12 animals each) prior to inoculation of tumors in all experiments.
All treatments were administered for 3 weekly cycles. Treatment was initiated when average tumor volume was 75 mm^3 (approximately 6-10 days after inoculation).
Tumor volumes, measured repeatedly throughout experiments, were used for analysis as correlated information. Since tumor growth over time after treatment was of interest, repeated measurement analysis for each treatment group was performed. Growth rates (slope) for each treatment group within each experiment were calculated and compared in linear regression. If the growth rate was positive for a certain treatment, tumors were still growing even after receiving the drug; if the growth rate is negative, tumors began to shrink after receiving the drug; if the growth rate is 0, tumors stop growing after receiving the drug. A p-value of 0.05 or less is considered significant.
as §3
Background: Xenograft models place foreign cells or tissue in a host animal.

Series [3] is described as follows: Maximum tolerated dose (MTD) in immune-deficient mice. The note with it: once weekly, intravenous. It is filed as in vivo.
Description: as §5

A further series concerns A431 tumor. In words: A431 tumor xenograft implanted subcutaneously in nude mice, tumor volume. It is filed as in vivo. From the text: In studies performed in support of the invention, a xenograft of the A431 tumor was implanted subcutaneously in nude mice. […] The liposomes included a vesicle-forming lipid derivatized with the hydrophilic polymer polyethyleneglycol.

A further series relates to B585 xenografts. In words: B585 primary human breast cancer xenograft, doxorubicin study 5. Format: in vivo, mice. The settings on record: doxorubicin HCl or liposome-entrapped 4 mg/kg iv once/week x3, anti-HER2 antibody 3 mg/kg ip twice/week x6. On the procedure:
2. […] Resuspended cells were chilled, then mixed with an equal volume of Matrigel. Cells (5 million cells per 0.2 ml injection volume, continuously mixed) were drawn into individual, chilled syringes for subcutaneous injection into the dorsum of each animal.
Immune deficient mice were used in all experiments. Study numbers 1, 2, 3 and 4 were conducted in homozygous nude female mice. Study number 5 was conducted in homozygous ICR scid female mice. All mice were obtained at the age of four weeks and acclimated for a minimum of 1 week prior to tumor inoculation. All mice were ear tagged for individual identification during acclimation. […]
(§6) Animals were weighed prior to inoculation of tumors and at least weekly thereafter. Tumors were measured twice weekly throughout the experiment, beginning 6-8 days after tumor inoculation. Tumor measurements were made by digital caliper in 3 dimensions and the volume recorded as one-half the product of these measurements. […]
(§7) Tumor volumes, measured repeatedly throughout the experiments, were used for analysis as correlated information. […] All tumor volumes were log transformed, with z=log10(y+1) where y is the calculated tumor volume, thus when y=0, z is meaningful and z=0. Log growth rates for transformed values, z, for each treatment group within each experiment were calculated and compared in linear regression. […]

Series [4] has as its system MDA453 xenografts. In words: MDA453 human breast cancer xenograft, doxorubicin study 4. It is filed as in vivo, mice. On the procedure: (§8) 1. BT474 and MDA453 Cells: The BT474 and MDA453 tumors were each inoculated from cultured cells in exponential growth. Cells were trypsinized, collected and washed in media. Cells were counted by hemacytometer, spun down and resuspended in media at 50 million cells per milliliter of media. Resuspended cells were chilled, then mixed with an equal volume of Matrigel. Cells (5 million cells per 0.2 ml injection volume, continuously mixed) were drawn into individual, chilled syringes for subcutaneous injection into the dorsum of each animal.
Immune deficient mice were used in all experiments. Study numbers 1, 2, 3 and 4 were conducted in homozygous nude female mice. […]
as §6, §7

Series [5] deals with BT474 xenografts. In words: BT474 human breast cancer xenograft, doxorubicin studies 1-3. It is filed as in vivo, mice. On the procedure: In study numbers 1, 2 and 3 immune-deficient mice were inoculated by subcutaneous injection into the dorsum with 5 million BT474 cells in 0.1 mL added to an equal volume of Matrigel for an inoculation volume of 0.2 mL. The inoculated mice were divided into six treatment groups of 12 mice each, prior to inoculation. Treatment was initiated when the average tumor volume was 100 mm^3, which occurred approximately 7-10 days after inoculation.
Saline, doxorubicin and liposome-entrapped doxorubicin were administered by intravenous injection for three treatments. […] The animals were monitored daily and the tumors were measured in three dimensions twice weekly over the study period.
as §8
Immune deficient mice were used in all experiments. Study numbers 1, 2, 3 and 4 were conducted in homozygous nude female mice. Study number 5 was conducted in homozygous ICR scid female mice. All mice were obtained at the age of four weeks and acclimated for a minimum of 1 week prior to tumor inoculation. All mice were ear tagged for individual identification during acclimation. For each study, 75 mice were inoculated with tumors to supply 72 study animals at treatment.
as §4, with “one-half” for “one half”, “euthanized by inhalation of 100% carbon dioxide.” for “euthanized.”
Animals were divided into 6 treatment groups prior to inoculation of tumors. […] Treatment was initiated when average tumor volume was 100 mm^3 (approximately 7-10 days after inoculation).
Tumor volumes, measured repeatedly throughout the experiments, were used for analysis as correlated information. Since tumor growth over time after treatment was of interest, repeated measurement analysis for each treatment group was performed. All tumor volumes were log transformed, with z=log10(y+1) where y is the calculated tumor volume, thus when y=0, z is meaningful and z=0. Log growth rates for transformed values, z, for each treatment group within each experiment were calculated and compared in linear regression. If the log growth rate is positive for a certain treatment, this means that the tumors still grow even after receiving the drug; if the log growth rate is negative, this means that the tumors begin to shrink after receiving the drug; if the log growth rate is 0, then the tumors stop growing after receiving the drug. A p-value of 0.05 or less is statically significant.

Structures are written as SMILES. Marks after values point to notes of the source that are not given here.

Experimental findings from patent US20050084524A1, “Method for potentiating activity of a chemotherapeutic drug” (ALZA Corporation, priority 1998, published 2005) are described below.

On to `N.N.[Cl][Pt][Cl]` [Cisplatin, cisplatin], for which the “Size of treated tumors as a function of size of control tumors, % T/C, Study No. 8” value in the series with MDA453 xenografts [1] (Day 33, MDA453, cisplatin 4 mg/kg, antibody 1 mg/kg, control saline) is 56.1 % T/C. Moreover, the “tumor volume over treatment period (FIGS. 9A-9B), in words” value with MDA453 xenografts [1] (Study No. 8, MDA453, cisplatin 4 mg/kg, antibody 1 mg/kg) is reported as “continual tumor growth”. Also, the “Growth rate of tumors (slope), Study No. 8 MDA453” value in the series with MDA453 xenografts [1] (cisplatin or liposome-entrapped cisplatin 4 mg/kg iv once/week x3, anti-HER2 antibody 1 mg/kg ip twice/week x6) is 19.84^e. For the same compound, the “Size of treated tumors as a function of size of control tumors, % T/C, Study No. 6” value with BT474 xenografts [2] (Day 44, BT474, cisplatin 6 mg/kg, antibody 3 mg/kg, control saline) is given as 10.0 % T/C. In the series with BT474 xenografts [2] (Day 49, BT474, cisplatin 4 mg/kg, antibody 0.5 mg/kg, control saline), the “Size of treated tumors as a function of size of control tumors, % T/C, Study No. 7” value is 41.7 % T/C. Moreover, the “tumor volume over treatment period (FIGS. 7A-7B), in words” value in the series with BT474 xenografts [2] (Study No. 6, BT474, cisplatin 6 mg/kg, antibody 3 mg/kg) is on record as “fared considerably better than the untreated animals”. Further, the “tumor volume over treatment period (FIG. 8), in words” value in the series on BT474 xenografts [2] (Study No. 7, BT474, cisplatin 4 mg/kg, antibody 0.5 mg/kg) was “continual tumor growth”. Besides, the “Growth rate of tumors (slope), Study No. 7 BT474” value in the series on BT474 xenografts [2] (cisplatin or liposome-entrapped cisplatin 4 mg/kg iv once/week x3, anti-HER2 antibody 0.5 mg/kg ip twice/week x6) was 14.35^b. Further, in the series with BT474 xenografts [2] (cisplatin or liposome-entrapped cisplatin 6 mg/kg iv once/week x3, anti-HER2 antibody 3 mg/kg ip twice/week x6), the “Growth rate of tumors (slope), Study No. 6 BT474” value came to 1.02. The same compound came in with an MTD in series [3] of 6 mg/kg.
For `COc1cccc2c1C(=O)c1c(O)c3c(c(O)c1C2=O)C[C@@](O)(C(=O)CO)C[C@@H]3O[C@H]1C[C@H](N)[C@H](O)[C@H](C)O1` [doxorubicin], in the series with A431 tumor (40 days following tumor implantation), the “Tumor Volume at 40 days” value is 1700 mm^3. Besides, the “Tumor Volume at 60 days” value with A431 tumor (60 days following tumor implantation) is on record as 3650 mm^3. For the same compound, in the series on A431 tumor (treatment from day 6), the “tumor volume as a function of time (FIG. 1), in words” value was “still an increase in tumor size but to a lesser extent”. Also, in the series on B585 xenografts, the “Log Growth Rate, Study No. 5” value stood at 0.052. In the series with MDA453 xenografts [4] (MDA453, doxorubicin HCl or liposome-entrapped 5 mg/kg iv once/week x3, anti-HER2 antibody 5 mg/kg ip twice/week x6), the “Log Growth Rate, Study No. 4” value was 0.020^a. For the same compound, the “tumor volume over treatment period (FIGS. 5A-5B), in words” value in the series with MDA453 xenografts [4] (Study No. 4, MDA453, doxorubicin 5 mg/kg, liposomal 5 mg/kg, antibody 5 mg/kg) was “continual increase in tumor volume”. In addition, in the series with BT474 xenografts [5] (BT474, doxorubicin HCl 4 mg/kg or liposome-entrapped 3 mg/kg iv once/week x3, anti-HER2 antibody 10 mg/kg ip twice/week x6), the “Log Growth Rate, Study No. 1” value amounted to 0.027. In addition, the “Log Growth Rate, Study No. 3” value with BT474 xenografts [5] (BT474, doxorubicin HCl or liposome-entrapped 3 mg/kg iv once/week x3, anti-HER2 antibody 1 mg/kg ip twice/week x6) was 0.011^a. Further, the “Log Growth Rate, Study No. 2” value in the series with BT474 xenografts [5] (BT474, doxorubicin HCl or liposome-entrapped 5 mg/kg iv once/week x3, anti-HER2 antibody 3 mg/kg ip twice/week x6) is listed as 0.010^a. In addition, the “tumor volume over treatment period (FIGS. 2A-2B), in words” value with BT474 xenografts [5] (Study No. 1, BT474, doxorubicin 4 mg/kg, liposomal 3 mg/kg, antibody 10 mg/kg) was “continual tumor growth”. For the same compound, the “tumor volume over treatment period (FIGS. 3A-3B), in words” value with BT474 xenografts [5] (Study No. 2, BT474, doxorubicin 5 mg/kg, liposomal 5 mg/kg, antibody 3 mg/kg) is listed as “reduced tumor volume relative to the control animals”. Also, in the series with BT474 xenografts [5] (Study No. 3, BT474, doxorubicin 3 mg/kg, liposomal 3 mg/kg, antibody 1 mg/kg), the “tumor volume over treatment period (FIGS. 4A-4B), in words” value is given as “fared better than the untreated animals”.

Usually MTD stands for the highest dose tested that stayed within the study's limit of toxicity. Read a low MTD as poorer tolerability.
